One may read the melting point as the temperature of the solid-liquid transition.

These results are taken from a melting point compilation (Tetko et al.; mined from patent text by program, amines drawn as free bases though some values may be those of a salt).

`CC(C)OC(=O)N1CCC(c2nc3cc(-c4ccc(C(=O)NC5CC5)c(F)c4)ccc3o2)CC1` showed a melting point of 162 to 165 °C.
Compound `CC(=O)c1cccc(C(=O)N2CCN(C(=O)c3cc(C(F)(F)F)cc(C(F)(F)F)c3)[C@H](Cc3ccc(C)c(C)c3)C2)c1` yielded a melting point of 156 to 157 °C.
For `Nc1cc(=O)n(C2CCCC2)c2nc(N[C@H]3CC[C@H](O)CC3)ncc12`, the melting point was in the range of 246 to 248 °C.
In the case of `COc1ccc(-c2onc3ccc(Br)cc23)cc1` it was 137 °C.
The figure for `CCCCCCc1cn(CC2OC(n3cnc4c(NCc5ccc(OC)cc5)ncnc43)C(O)C2O)nn1` (stereo not given) is 101 to 102 °C; for `CCOC(=O)Cc1ccc(-c2nc(COc3ccc(COc4nn(-c5ccccc5)cc4/C=C\c4cnn(CC)c4)cc3OC)c(C)o2)cc1` it is 140 to 141 °C; for `C=CCSc1cn(C)cc(-c2cccc(C(F)(F)F)c2)c1=O` it is 74 to 75 °C.
Compound `COc1ccc(CN(C)CCOc2ccc(NC(=O)c3cccc4c(=O)c5cc(SC)ccc5[nH]c34)cc2)cc1OC` gave a melting point of 160 °C.
Turning to `COC1C(O)CCC(O)(CSc2ccccc2)C1C1(C)OC1CC=C(C)C` (stereo not given), the melting point was in the range of 94 to 96 °C.
The figure for `CNC(=O)Nc1cc(C2(C)CC2)on1` is 144 to 147 °C; for `CCc1nc(C(=O)OC)c(OC)c(N)c1F` it is 110 to 113 °C; for `COc1cc(C(=O)CBr)cc(C#N)c1OC` it is 138 to 141 °C.
In the case of `c1ccc(Nc2ncnc3ncccc23)cc1` it was 258 °C.
In the case of `N#Cc1cccc(C(=O)c2ccc(S)cc2)c1` it was 126 °C.
The compound `COc1ccc2c(c1)c(C(C)=O)cn2C` came in with a melting point of 167 to 168 °C.
In the case of `Cn1nc(-c2ccc(Cl)c(NS(C)(=O)=O)c2)c2ccccc2c1=O` it was 234 to 236 °C.
The figure for `CCCCCCc1ccc(-c2c(C#N)nn(C(C)(C)Cc3ccc(C)cc3)c2O)cc1` is 140 to 142 °C; for `COC(=O)c1cc(SC)cnc1C1=NC(C)(C(C)C)C(=O)N1` (stereo not given) it is 107 to 108 °C; for `Clc1ccc2c(c1)C(c1ccsc1)=NCC1COCCN21` (stereo not given) it is 207 to 212 °C.
The figure for `COc1ccc(NC(=O)c2c(Cl)cccc2Cl)c2nccc(NNC(C)=O)c12` is more than 250 °C; for `CCCCC[C@H]1CC[C@H](CCC2CCC(c3ccc(Oc4ccc(N)cc4)cc3)(c3ccc(Oc4ccc(N)cc4)cc3)CC2)CC1` it is 171 to 172 °C.
In turn, `Cc1ccc(C(=O)C=Cc2ccccc2)c(C)c1` returned a melting point of 68 °C.
The figure for `O=C(C=Cc1ccc(C(=O)O)cn1)NCCCCN1CCN(C(c2ccccc2)c2ccccc2)CC1` is 214 to 216 °C.
The figure for `N#Cc1cnn2c1NCC=C2c1ccc(Cl)c(Cl)c1` is 254 to 256 °C; for `Nc1ccc(-n2nnn(CCCC3CCCCC3)c2=O)cc1` it is 64 to 69 °C; for `FC(F)(F)c1cccc(NC2CCN(c3ccc(Cl)nn3)CC2)c1` it is 118 °C.
In the case of `O=C(Nc1ccccc1)OCCCC(=O)c1ccccc1` it was 121 to 123 °C; in that of `CCOC(=O)C=Cc1ccc(O)c(C(F)(F)F)c1C(F)(F)F`, 138 to 140 °C.
Compound `Cc1csc(-c2cc(=O)n(C)c3ccc(C(O)(c4ccc(Cl)cc4)c4cncn4C)cc23)n1` (stereo not given) gave a melting point of 200 °C.
The figure for `CC(C)(C)OC(=O)N1CCC(c2nc3cc(-c4ccc(C#N)cc4)ccc3o2)CC1` is 137 to 141 °C; for `C=CCOc1ccccc1/C=C\C(=O)O` it is 80 to 82 °C.
The figure for `CCOc1cc2cc(CO)nc(-c3ccc(Cl)c([N+](=O)[O-])c3)c2cc1OCC` is 187 to 188 °C; for `CC(c1ccc(F)cc1)N1CCN(c2cc(Oc3cccc4c(=O)[nH]ccc34)ncn2)CC1` (stereo not given) it is 249 °C.
The figure for `CCOC(=O)COc1ccc(CBr)cc1` is 44 to 45 °C; for `CS(=O)(=O)c1ccc(-n2cnc(Cl)c2-c2ccc(Cl)c(Cl)c2)cc1` it is 156 to 157 °C.
